Source: patent US12281122B1, “PI3K inhibitors” (Cogent Biosciences, Inc., priority 2023, dated 2025)

Experiments:
[1] = tested on: SKBR3 (PI3Kα-Wild Type) cell line; assay: HTRF phospho-AKT(S473) cell assay in SKBR3 cells; assay type: cell-based, human
In short: (§1)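 HTRF read-out of phospho-AKT(S473) in lysates gave IC50 values after 2 h compound exposure at 37° C. Dose series was 12 points at 1:3, topping at 5 μM for T47D and 10 μM for SKBR3. Only SKBR3 received 70 ng/ml PDGF-BB during the last 15 minutes.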

[2] = tested on: T47D (PI3Kα-H1047R) cell line; assay: HTRF phospho-AKT(S473) cell assay in T47D cells; assay type: cell-based, human
In short: as §1

[3] = Homo sapiens, SK-BR-3; SKBR3 (PI3Kα-Wild Type) cells, HTRF phospho-AKT(S473), 2 hours compound incubation, PDGF-BB stimulated
[4] = Homo sapiens; T47D (PI3Kα-H1047R) cells, HTRF phospho-AKT(S473), 2 hours compound incubation
[5] = Homo sapiens, SK-BR-3; HTRF phospho-AKT(S473), SKBR3 (PI3Kα-Wild Type) cells, 2 hours compound incubation, PDGF-BB stimulated
[6] = Homo sapiens; HTRF phospho-AKT(S473), T47D (PI3Kα-H1047R) cells, 2 hours compound incubation

Row | SMILES | IC50 [1, 3] [nM] | IC50 [2, 4] [nM] | IC50 [1, 5] [nM] | IC50 [2, 6] [nM]
1 | Cc1cc([C@@H](C)Nc2ccc(Cl)nc2C(=O)NS(C)(=O)=O)c2nc(N3C[C@@H]4[C@H](C3)[C@H]4c3nn(C)cc3C)n(C)c(=O)c2c1 [Compound 415, 6-chloro-3-(((R)-1-(2-((1R,5S,6R)-6-(1,4-dimethyl-1H-pyrazol-3-yl)-3-azabicyclo[3.1.0]hexan-3-yl)-3,6-dimethyl-4-oxo-3,4-dihydroquinazolin-8-yl)ethyl)amino)-N-(methylsulfonyl) picolinamide] | 1000 to 5000 | < 250 | – | –
2 | Cc1cc([C@@H](C)Nc2ccc(Cl)nc2C(=O)NS(C)(=O)=O)c2nc(N3C[C@@H]4[C@H](C3)[C@H]4c3cc(C)on3)n(C)c(=O)c2c1 [Compound 665, 6-chloro-3-(((R)-1-(3,6-dimethyl-2-((1R,5S,6R)-6-(5-methylisoxazol-3-yl)-3-azabicyclo[3.1.0]hexan-3-yl)-4-oxo-3,4-dihydroquinazolin-8-yl)ethyl)amino)-N-(methylsulfonyl) picolinamide] | – | – | 1000 to 5000 | < 250
3 | Cc1cc([C@@H](C)Nc2ccc(Cl)nc2C(=O)NS(C)(=O)=O)c2nc(N3CCC[C@@H](c4ccncc4)C3)n(C)c(=O)c2c1 (relative stereo) [Compound 207, 6-chloro-3-(((R)-1-(3,6-dimethyl-4-oxo-2-((R*)-3-(pyridin-4-yl)piperidin-1-yl)-3,4-dihydroquinazolin-8-yl)ethyl)amino)-N-(methylsulfonyl) picolinamide] | 1000 to 5000 | < 250 | – | –
4 | Cc1cc([C@@H](C)Nc2ccc(Cl)nc2C(=O)NS(C)(=O)=O)c2nc(N3CCN(c4ccccn4)CC3)n(C)c(=O)c2c1 [Compound 182, (R)-6-chloro-3-((1-(3,6-dimethyl-4-oxo-2-(4-(pyridin-2-yl)piperazin-1-yl)-3,4-dihydroquinazolin-8-yl)ethyl)amino)-N-(methylsulfonyl) picolinamide] | 1000 to 5000 | < 250 | – | –
5 | Cc1cc([C@@H](C)Nc2ccc(Cl)nc2C(=O)NS(C)(=O)=O)c2nc(N3CCC[C@H](c4cnc(C)nc4)C3)n(C)c(=O)c2c1 (relative stereo) [Compound 646, 6-chloro-3-(((R)-1-(3,6-dimethyl-2-((R*)-3-(2-methylpyrimidin-5-yl)piperidin-1-yl)-4-oxo-3,4-dihydroquinazolin-8-yl)ethyl)amino)-N-(methylsulfonyl) picolinamide] | – | – | ≥ 5000 | < 250
6 | COc1cc([C@H]2[C@@H]3CN(c4nc5c([C@@H](C)Nc6ccc(Cl)nc6C(=O)NS(C)(=O)=O)cc(C)cc5c(=O)n4C)C[C@@H]32)c(F)cn1 [Compound 479, 6-chloro-3-(((R)-1-(2-((1R,5S,6S)-6-(5-fluoro-2-methoxypyridin-4-yl)-3-azabicyclo[3.1.0]hexan-3-yl)-3,6-dimethyl-4-oxo-3,4-dihydroquinazolin-8-yl)ethyl)amino)-N-(methylsulfonyl) picolinamide] | – | – | ≥ 5000 | 250 to 500
7 | Cc1cc([C@@H](C)Nc2ccc(Cl)nc2C(=O)NS(C)(=O)=O)c2nc(N3Cc4cnn(C(F)F)c4C3)n(C)c(=O)c2c1 [Compound 172, (R)-6-chloro-3-((1-(2-(1-(difluoromethyl)-4,6-dihydropyrrolo[3,4-c]pyrazol-5(1H)-yl)-3,6-dimethyl-4-oxo-3,4-dihydroquinazolin-8-yl)ethyl)amino)-N-(methylsulfonyl) picolinamide] | 1000 to 5000 | < 250 | – | –
8 | Cc1cc([C@@H](C)Nc2ccc(Cl)nc2C(=O)NS(C)(=O)=O)c2nc(N3CCC[C@H](c4cnn(CC(F)(F)F)c4)C3)n(C)c(=O)c2c1 (relative stereo) [Compound 231, 6-chloro-3-(((R)-1-(3,6-dimethyl-4-oxo-2-((R*)-3-(1-(2,2,2-trifluoroethyl)-1H-pyrazol-4-yl)piperidin-1-yl)-3,4-dihydroquinazolin-8-yl)ethyl)amino)-N-(methylsulfonyl) picolinamide] | 1000 to 5000 | < 250 | – | –
